The structures appear in SMILES notation.

A word on the IC50: it is the point on the concentration scale where inhibition reaches its midpoint.

In experiment [1] the test system is OVCAR-3 cells. The experiment can be described thus: Inhibition of OVCAR-3 cell proliferation (CellTiter-Glo cell viability). It is filed as cell-based. As to conditions: Homo sapiens; OVCAR-3 cells (TP53 R248Q mutation), 72 hours culture with compound; read-out: IC50. Here is the method: Influences of the compounds of the present invention on OVCAR-3 cell proliferation were determined by the following method. OVCAR-3 cells (containing TP53 R248Q mutation) were purchased from the Cell Bank of Shanghai Institute of Biochemistry and Cell Biology, Chinese Academy of Sciences, and cultured in an RPMI 1640 culture medium containing 10% fetal bovine serum, 100 U penicillin and 100 µg/mL streptomycin. A cell viability was determined by a CellTiter-Glo® Luminescent Cell Viability Assay kit (Promega, article number G7573).
(§1) An experimental method was operated according to steps in the instruction of the kit, which was briefly described as follows: a test compound was dissolved in DMSO first to prepare a 10 mM stock solution, then the stock solution was diluted with the culture medium to prepare a test sample, and a final concentration of the compound was in a range of 1000 nM-0.015 nM. Cells in a logarithmic growth phase were inoculated into a 96-well cell culture plate at a density of 1000 cells per well, cultured in a 5% CO2 incubator at 37°C overnight, and then the test compound was added to continuously culture for 72 hours. After the culture was ended, 50 uL of CellTiter-Glo detection solution was added to each well , shaken for 5 minutes, and then allowed to stand for 10 minutes, and subsequently, a luminance value of each well of the sample was read by a microplate reader in a Luminescence mode. By comparing with the numerical value of a control group (0.3% DMSO), a percentage inhibition rate of the compound at each concentration point was calculated, and then nonlinear regression analysis was carried out based on concentration logarithm-inhibition rate of the compound in GraphPad Prism 5 software, so as to obtain an IC50 value of the compound for inhibiting the cell proliferation, which was as shown in Table 1. Table 1 IC50 data of the compounds of the present invention for inhibiting OVCAR-3 cell proliferation

Experiment [2] has as its system HT-29 cells. Briefly: Inhibition of HT-29 cell proliferation (CellTiter-Glo cell viability). It is filed as cell-based. As to conditions: Homo sapiens; HT-29 cells (TP53 R273H mutation), 120 hours culture with compound; read-out: IC50. Here is the method: Influences of the compounds of the present invention on HT-29 cell proliferation were determined by the following method. HT-29 cells (containing TP53 R273H mutation) were purchased from the Cell Bank of Shanghai Institute of Biochemistry and Cell Biology, Chinese Academy of Sciences, and cultured in a McCOY's 5A culture medium containing 10% fetal bovine serum, 100 U penicillin and 100 µg/mL streptomycin. A cell viability was determined by a CellTiter-Glo® Luminescent Cell Viability Assay kit (Promega, article number G7573).
as §1, with “for 120” for “for 72”, “each well,” for “each well ,”, “Table 2.” for “Table 1.”, “Table 2” for “Table 1”, “inhibiting HT-29” for “inhibiting OVCAR-3”
(Cellular ATP, detected with luciferase, serves as a proxy for viable cell number.)

Turning to `CCS(=O)(=O)Nc1ccc(C(=O)Nc2ccc(C(N)=O)c(N3CCC(F)(F)CC3)c2)c(N2CCC3(CC2)CC3)c1` [Example 1, N-(4-carbamoyl-3-(4,4-difluor opiperidin-1-yl)phenyl)-4-(ethylsulfonamido)-2-(6-azaspiro[2.5]octan-6-yl)benzamide], the values for the 50% inhibitory concentration (IC50) in experiment [1] and in experiment [2] were 16.5 nM and 10.2 nM, respectively.

For `CCS(=O)(=O)Nc1ccc(C(=O)Nc2ccc(C(=O)NC)c(N3CCC(F)(F)CC3)c2)c(N2CCC3(CC2)CC3)c1` [Example 3, 2-(4,4-difluoropiperidin-1-yl)-4-(4-(ethylsulfonamido)-2-(6-azaspiro[2.5]octan-6-yl)benzamido)-N-methylbenzamide], the results for the IC50 in experiment [1] and in experiment [2] were 3.7 nM and 4 nM, respectively. Turning to `CCS(=O)(=O)Nc1ccc(C(=O)Nc2ccc(C(=O)N(C)C)c(N3CCC(F)(F)CC3)c2)c(N2CCC3(CC2)CC3)c1` [Example 4, 2-(4,4-difluoropiperidin-1-yl)-4-(4-(ethylsulfonamido)-2-(6-azaspiro[2.5]octan-6-yl)benzamido)-N,N-dimethylbenzamide], the half-maximal inhibitory concentration (IC50) in experiment [1] was found to be 18.9 nM. In the case of `CCS(=O)(=O)Nc1ccc(C(=O)Nc2ccc(C(C)=O)c(N3CCC(F)(F)CC3)c2)c(N2CCC3(CC2)CC3)c1` [Example 5, N-(4-acetyl-3-(4,4-difluoropiperidin-1-yl)phenyl)-4-(ethylsulfonamido)-2-(6-azaspiro[2.5]octan-6-yl)benzamide], the 50% inhibitory concentration (IC50) in experiment [1] turned out to be 33.1 nM. Take `CCS(=O)(=O)Nc1ccc(C(=O)Nc2ccc(CO)c(N3CCC(F)(F)CC3)c2)c(N2CCC3(CC2)CC3)c1` [Example 6, N-(3-(4,4-difluoropiperidin-1-yl)-4-(hydroxymethyl)phenyl)-4-(ethylsulfonamido)-2-(6-azaspiro[2.5]octan-6-yl)benzamide]: the IC50 in experiment [1] stood at 11.1 nM; in experiment [2] it was 13.3 nM. `CCS(=O)(=O)Nc1ccc(C(=O)Nc2ccc(-c3ncco3)c(N3CCC(F)(F)CC3)c2)c(N2CCC3(CC2)CC3)c1` [Example 7, N-(3-(4,4-difluoropiperidin-1-yl)-4-(oxazol-2-yl)phenyl)-4-(ethylsulfonamido)-2-(6-azaspiro[2.5]octan-6-yl)benzamide]: the results for the half-maximal inhibitory concentration (IC50) in experiment [1] and in experiment [2] were 11.1 nM and 18.3 nM, respectively. In the case of `CCS(=O)(=O)Nc1ccc(C(=O)Nc2ccc(-c3ccncc3)c(N3CCC(F)(F)CC3)c2)c(N2CCC3(CC2)CC3)c1` [Example 8, N-(3-(4,4-difluoropiperidin-1-yl)-4-(pyridin-4-yl)phenyl)-4-(ethylsulfonamido)-2-(6-azaspiro[2.5]octan-6-yl)benzamide], the IC50 in experiment [1] was determined as 21.2 nM. On to `CCS(=O)(=O)Nc1ccc(C(=O)Nc2ccc(-c3cccnc3)c(N3CCC(F)(F)CC3)c2)c(N2CCC3(CC2)CC3)c1` [Example 9, N-(3-(4,4-difluoropiperidin-1-yl)-4-(pyridin-3-yl)phenyl)-4-(ethylsulfonamido)-2-(6-azaspiro[2.5]octan-6-yl)benzamide], for which the values for the IC50 in experiment [1] and in experiment [2] were 15.2 nM and 14.5 nM, respectively. Regarding `CCS(=O)(=O)Nc1ccc(C(=O)Nc2ccc(-c3ccccn3)c(N3CCC(F)(F)CC3)c2)c(N2CCC3(CC2)CC3)c1` [Example 10, N-(3-(4,4-difluoropiperidin-1-yl)-4-(pyridin-2-yl)phenyl)-4-(ethylsulfonamido)-2-(6-azaspiro[2.5]octan-6-yl)benzamide], the IC50 in experiment [1] stood at 17.3 nM; in experiment [2], 27.1 nM. Taken in the same sequence, the figures for `CCS(=O)(=O)Nc1ccc(C(=O)Nc2ccc(-c3cnccn3)c(N3CCC(F)(F)CC3)c2)c(N2CCC3(CC2)CC3)c1` [Example 11, N-(3-(4,4-difluoropiperidin-1-yl)-4-(pyrazin-2-yl)phenyl)-4-(ethylsulfonamido)-2-(6-azaspiro[2.5]octan-6-yl)benzamide] were 17.7 nM and 16.3 nM.

As to `CCS(=O)(=O)Nc1ccc(C(=O)Nc2ccc(-n3ccnc3)c(C3=CCC(F)(F)CC3)c2)c(N2CCC3(CC2)CC3)c1` [Example 22, N-(4',4'-difluoro-6-(1H-imidazol-1-yl)-2',3',4',5'-tetrahydro-[1,1'-biphenyl]-3-yl)-4-(ethylsulfonamido)-2-(6-azaspiro[2. 5]octan-6-yl)benzamide], the half-maximal inhibitory concentration (IC50) in experiment [1] came out at 19.9 nM; in experiment [2] it was 16.8 nM. For `CCS(=O)(=O)Nc1ccc(C(=O)Nc2ccc(-c3ncco3)c(OC3CC(F)(F)C3)c2)c(N2CCC3(CC2)CC3)c1` [Example 23, N-(3-(3,3-difluorocyclobutoxy)-4-(oxazol-2-yl)phenyl)-4-(ethylsulfonamido)-2-(6-azaspiro [2.5]octan-6-yl)benzamide], in experiment [1], the IC50 worked out at 51.3 nM. Regarding `CCS(=O)(=O)Nc1ccc(C(=O)Nc2ccc(-n3ccnc3)c(OC3CC(F)(F)C3)c2)c(N2CCC3(CC2)CC3)c1` [Example 24, N-(3-(3,3-difluorocyclobutoxy)-4-(1H-imidazol-1-yl)phenyl) -4-(ethylsulfonamido)-2-(6-azaspiro[2.5]octan-6-yl)benzamide], the 50% inhibitory concentration (IC50) in experiment [1] stood at 17.6 nM. Take `O=C(Nc1ccc(-n2ccnn2)c(N2CCC(F)(F)CC2)c1)c1ccc(NS(=O)(=O)C2CC2)cc1N1CCC2(CC1)CC2` [Example 32, 4-(cyclopropanesulfonamido)-N-(3-(4,4-difluoropiperidin-1-yl)-4-(1H-1,2,3-triazol-1-yl)phenyl)-2-(6-azaspiro[2.5]octan-6-yl)benzamide]: the IC50 in experiment [1] stood at 5.9 nM; in experiment [2], 4.7 nM. For the compound `CCS(=O)(=O)Nc1ccc(C(=O)Nc2ccc(-c3nnn(C)n3)c(N3CCC(F)(F)CC3)c2)c(N2CCC3(CC2)CC3)c1` [Example 35, N-(3-(4,4-difluoropiperidin-1-yl)-4-(2-methyl-2H-tetrazol-5-yl)phenyl)-4-(ethylsulfonamido)-2-(6-azaspiro[2.5]octan-6-y 1)benzamide], the IC50 turned out to be 11.1 nM in experiment [1] and 6.2 nM in experiment [2]. For the compound `CCS(=O)(=O)Nc1ccc(C(=O)Nc2ccc(-c3ccon3)c(N3CCC(F)(F)CC3)c2)c(N2CCC3(CC2)CC3)c1` [Example 36, N-(3-(4,4-difluoropiperidin-1-yl)-4-(isoxazol-3-yl)phenyl)-4-(ethylsulfonamido)-2-(6-azaspiro[2.5]octan-6-yl)benzamide], the figures for the 50% inhibitory concentration (IC50) in experiment [1] and in experiment [2] were 11.1 nM and 9.3 nM, respectively. Regarding `CCS(=O)(=O)Nc1ccc(C(=O)Nc2ccc(-c3ncnn3C)c(N3CCC(F)(F)CC3)c2)c(N2CCC3(CC2)CC3)c1` [Example 38, N-(3-(4,4-difluoropiperidin-1-yl)-4-(1-methyl-1H-1,2,4-triazol-5-yl)phenyl)-4-(ethylsulfon amido)-2-(6-azaspiro[2.5]octan-6-yl)benzamide], the IC50 in experiment [1] was determined as 27.1 nM. For `CCS(=O)(=O)Nc1ccc(C(=O)Nc2ccc(-c3nnco3)c(N3CCC(F)(F)CC3)c2)c(N2CCC3(CC2)CC3)c1` [Example 40, N-(3-(4,4-difluoropiperidin-1-yl)-4-(1,3,4-oxadiazol-2-yl)phenyl)-4-(ethylsulfonamido)-2-(6-azaspiro[2.5]octan-6-yl)benz amide], the figures for the concentration for half-maximal inhibition (IC50) in experiment [1] and in experiment [2] were 6 nM and 8.2 nM, respectively.

Take `CCS(=O)(=O)Nc1ccc(C(=O)Nc2ccc(-c3ncn(C)n3)c(NC3CC(F)(F)C3)c2)c(N2CCC3(CC2)CC3)c1` [Example 54, N-(3-((3,3-difluorocyclobutyl)amino)-4-(1-methyl-1H-1,2,4-triazol-3-yl)phenyl)-4-(ethylsulfonamido)-2-(6-azaspiro[2.5]octan-6-yl)benzamide]: the IC50 in experiment [1] is 38.9 nM. For `CCS(=O)(=O)Nc1ccc(C(=O)Nc2ccc(Oc3ccccn3)c(N3CCC(F)(F)CC3)c2)c(N2CCC3(CC2)CC3)c1` [Example 55, N-(3-(4,4-difluoropiperidin-1-yl)-4-(pyridin-2-yloxy)phenyl) -4-(ethylsulfonamido)-2-(6-azaspiro[2.5]octan-6-yl)benzamide], the concentration for half-maximal inhibition (IC50) in experiment [1] amounted to 44.7 nM.

(Values after patent publication EP4748837A1, “AROMATIC AMIDE DERIVATIVE, AND PREPARATION METHOD THEREFOR AND USE THEREOF” (Zhejiang Hisun Pharmaceutical Co., Ltd., priority 2023, dated 2025).)
